Assay [1] concerns NIH3T3 cells. Nature of the assay: Proliferation (MTT survival rate) of NIH3T3 mouse fibroblasts. Type of assay: cell-based. The settings on record: 50 μM or 100 μM, serum-free DMEM, 72 hours, MTT 540 nm, vs untreated control, FIG. 1A. How it is done:
(§1) In this example, the aim was to confirm the effect of a peptide according to an example on proliferation of skin cells, by evaluating changes in survival rate of NIH3T3 cells, which are mouse fibroblasts, or HaCaT cells, which are human keratinocytes.
(§2) Specifically, NIH3T3 cells or HaCaT cells were seeded in a 96-well plate at a density of 5×10^3 cells/well and cultured for 24 hours. Next, the cells were washed once with serum-free DMEM media, and 50 μM or 100 μM of a peptide consisting of an amino acid sequence of SEQ ID NO: 1 was dispensed into 200 μL of the serum-free media, and cultured in a CO2 incubator at 37 °C for 72 hours. Next, the culture was washed twice with PBS, and 0.5 mg/ml of MTT (Sigma, Cat. No.: M2003, USA) solution was dispensed into each well. Next, after being shaded from light, it was cultured in a CO2 incubator at 37 °C for 4 hours. Next, the absorbance at 540 nm was measured. In this example, an untreated group was used as the control group, and a group to which insulin-like growth factor was added (IGF) was used as the positive control group.

Assay [2] relates to HaCaT cells. As to the kind of experiment: Proliferation (MTT survival rate) of HaCaT human keratinocytes. Type of assay: cell-based. The note with it: 50 μM or 100 μM, serum-free DMEM, 72 hours, MTT 540 nm, vs untreated control, FIG. 1B. How it is done:
as §1, §2

In a further assay the test system is fibronectin. Nature of the assay: Expression of fibronectin in NIH3T3 cells, RT-PCR. The format is cell-based, mouse. The settings on record: 50 μM or 1000 μM, 24 hours, vs untreated control, FIG. 2, 3B. How it is done: (§3) In this example, the aim was to confirm the effect of the peptide according to an example on improving endogenous skin aging, including improvement of wrinkles and enhancement of elasticity, etc., by evaluating the expression levels of collagen type 1 (Col1a1), fibronectin, or elastin, which are known components of the dermis.
(§4) Specifically, NIH3T3 cells were seeded in a 6-well plate at a density of 3×10^5 cells/well and cultured for 24 hours. Next, the cells were washed once with serum-free DMEM media, and 50 μM or 1000 μM of a peptide consisting of an amino acid sequence of SEQ ID NO: 1 was dispensed into 1 mL of the serum-free media, and cultured in a CO2 incubator at 37 °C for 24 hours. Next, the culture was washed twice with PBS, and RNA was isolated from the culture using easy blue (iNtRON, Korea). Using an RT kit (Enzynomics, Korea), 1 μg of the isolated RNA was reverse transcribed to synthesize the respective cDNA. Next, polymerase chain reaction (PCR) was performed using the cDNAs and primers Col1a1, fibronectin, and elastin. Meanwhile, an untreated group was used as a control group, and a group to which TGF-β1 was added (TGF-β1) was used as a positive control group, the nucleotide sequences of the primers used in this example are shown in Table 2 below.

The next assay has as its system AQP3. As to the kind of experiment: Expression of aquaporin-3 (AQP3) in HaCaT cells, RT-PCR. The format is cell-based, human. The note with it: 50 μM or 1000 μM, 24 hours, vs untreated control, FIG. 4, 5B. How it is done:
(§5) In this example, the aim was to confirm the effect of the peptides according to an example on strengthening the skin barrier, by evaluating the expression levels of sirtuin-1 (SIRT-1) or aquaporin-3 (AQP3).
(§6) Specifically, HaCaT cells were seeded in a 6-well plate at a density of 3×10^5 cells/well and cultured for 24 hours. Next, the cells were washed once with serum-free DMEM media, and 50 μM or 1000 μM of a peptide consisting of an amino acid sequence of SEQ ID NO: 1 was dispensed into 1 mL of the serum-free media, and cultured in a CO2 incubator at 37 °C for 24 hours. Next, the culture was washed twice with PBS, and RNA was isolated from the culture using easy blue (iNtRON, Korea). Using an RT kit (Enzynomics, Korea), 1 μg of the isolated RNA was reverse transcribed to synthesize the respective cDNA. Next, polymerase chain reaction was performed using the cDNAs and primers sirtuin-1 and aquaporin-3. Meanwhile, an untreated group was used as a control group, and a group to which EGF was added (EGF) was used as a positive control group, the nucleotide sequences of the primers used in this example are shown in Table 3 below.

For a further assay, the system named is elastin. As to the kind of experiment: Expression of elastin in NIH3T3 cells, RT-PCR. Type of assay: cell-based, mouse. The settings on record: 50 μM or 1000 μM, 24 hours, vs untreated control, FIG. 2, 3C. How it is done:
as §3, §4

In assay [3] the test system is HaCaT cells. Nature of the assay: Reactive oxygen species increased by ultraviolet rays in HaCaT cells (DCFH-DA, flow cytometry). The format is cell-based, human. The note with it: 50 μM or 1000 μM, UV 15 mJ/cm^2, 24 hours after UV, FIG. 7. How it is done: (§7) In this example, the aim was to confirm the effect of the peptide according to an embodiment on the antioxidant effect in damaged skin, by evaluating the change in the level of reactive oxygen species in skin cells increased by ultraviolet irradiation.
(§8) Specifically, NIH3T3 cells or HaCaT cells were seeded in a 6-well plate at a density of 5×10^5 cells/well and cultured for 24 hours. Next, the cells were washed once with serum-free DMEM media, and 50 μM or 1000 μM of a peptide consisting of an amino acid sequence of SEQ ID NO: 1 was dispensed into 1 mL of the serum-free media, and cultured in a CO2 incubator at 37 °C for […]. Next, the above culture was transferred to an e-tube, mixed with 1 ml of PBS, and dispensed into a well plate. Next, using a UV irradiator (VILBER LOURMAT, Cat No.: 3102-BSU, France), 8 J/cm^2 ultraviolet rays were irradiated to NIH3T3 cells, and 15 mJ/cm^2 ultraviolet rays were irradiated to HaCaT cells. Next, the PBS in the well plate was removed, 900 μL of the culture medium in which the peptides were dispensed was added, and the plate was cultured in a CO2 incubator at 37 °C for 24 hours. Next, the culture was treated with DCFH-DA (2′,7′-dichlorofluorescin diacetate), wrapped in foil, and cultured in a CO2 incubator at 37 °C for 30 minutes. […] After washing the centrifuged cells with PBS, fluorescence values were measured through flow cytometry (FACS, BD, USA). […]

Another assay has as its system SIRT-1. As to the kind of experiment: Expression of sirtuin-1 (SIRT-1) in HaCaT cells, RT-PCR. Type of assay: cell-based, human. The note with it: 50 μM or 1000 μM, 24 hours, vs untreated control, FIG. 4, 5A. How it is done: as §5, §6
A further assay relates to Col1a1. As to the kind of experiment: Expression of collagen type 1 (Col1a1) in NIH3T3 cells, RT-PCR. Type of assay: cell-based, mouse. The settings on record: 50 μM or 1000 μM, 24 hours, vs untreated control, FIG. 2, 3A. How it is done:
as §3, §4

The test system of assay [4] is NIH3T3 cells. As to the kind of experiment: Reactive oxygen species increased by ultraviolet rays in NIH3T3 cells (DCFH-DA, flow cytometry). Type of assay: cell-based, mouse. The settings on record: 50 μM or 1000 μM, UV 8 J/cm^2, 24 hours after UV, FIG. 6. How it is done: as §7, §8

The record followed here is US20260373042A1, “PEPTIDE HAVING ACTIVITY OF IMPROVING STATE OF SKIN, AND USE THEREOF” (CAREGEN CO., LTD., priority 2022, published 2026).

Turning to DGWNY [SEQ ID NO: 1], the proliferation of fibroblasts result in the assay with NIH3T3 cells [1] is recorded as “promoted”. The proliferation of keratinocytes result in the assay with HaCaT cells [2] is “promoted”. In addition, the expression of fibronectin result in the assay on fibronectin is reported as “increased”. Moreover, the “expression of AQP3” value in the assay on AQP3 is reported as “increased”. In addition, in the assay with elastin, the expression of elastin result is listed as “increased”. For the same substance, the “level of reactive oxygen species in keratinocytes increased by ultraviolet irradiation” value in the assay with HaCaT cells [3] is “reduced”. Besides, the “expression of SIRT-1” value with SIRT-1 is given as “increased”. In the assay on Col1a1, the “expression of Col1a1” value was “increased”. Besides, in the assay with NIH3T3 cells [4], the “level of reactive oxygen species in fibroblasts increased by ultraviolet irradiation” value is reported as “reduced”.
